In ChEMBL document CHEMBL1136037, “Novel benzthiodiazepinones as antiherpetic agents: SAR improvement of therapeutic index by alterations of the seven-membered ring” (Bioorg Med Chem Lett, 2002):

Tests used:
[1] = Toxic concentration against uninfected cells and their ability to generate XTT formazan; assay type: ADME, cell-based; conditions: read-out: TC50 (the source's name)
Human alphaherpesvirus 1 = experiment: Inhibitory concentration against herpes simplex virus (HSV-1-lacZ) replication
[2] = Therapeutic index; conditions: read-out: Therapeutic index

| SMILES | EC50 (Human alphaherpesvirus 1) [µM] | CC50 [1] [µM] | selectivity ratio [2] |
| --- | --- | --- | --- |
| COc1ccc2sc3c(c2c1)N[C@@H](C)CNC3=O | 0.05 | 2 | 40 |
| COc1ccc2sc3c(c2c1)N(Cc1ccccc1C)CCNC3=O | 0.021 | 25 | 1200 |
| COc1ccc2sc3c(c2c1)NC[C@@H](Cc1ccccc1)NC3=O | 0.34 | 10 | 29 |
| COc1ccc2sc3c(c2c1)N(Cc1cccc([N+](=O)[O-])c1)CCNC3=O | 0.004 | 25 | 6250 |
| COc1ccc2sc3c(c2c1)NC[C@H](C)NC3=O | 0.17 | 6 | 35 |
| COc1ccc2sc3c(c2c1)N[C@H](Cc1ccccc1)CNC3=O | 0.09 | 1.4 | 16 |
| COc1ccc(CN2CCNC(=O)c3sc4ccc(OC)cc4c32)cc1 | 0.012 | 10 | 830 |
| COc1cccc(CN2C[C@H](C)NC(=O)c3sc4ccc(OC)cc4c32)c1 | 0.02 | 11 | 550 |
| COc1ccc2sc3c(c2c1)N(Cc1ccc([N+](=O)[O-])cc1)CCNC3=O | 0.05 | 25 | 500 |
| COc1ccc2sc3c(c2c1)NC[C@H](C(C)C)NC3=O | 0.06 | 4 | 67 |
| COc1cccc(CN2C[C@@H](Cc3ccccc3)NC(=O)c3sc4ccc(OC)cc4c32)c1 | 0.45 | 4 | 9 |
| COc1ccc2sc3c(c2c1)N(Cc1cccc(Cl)c1)CCNC3=O | 0.005 | 20 | 4000 |
| COc1cccc(CN2C[C@H](Cc3ccccc3)NC(=O)c3sc4ccc(OC)cc4c32)c1 | 0.09 | 6 | 67 |
| COc1ccc2sc3c(c2c1)SCCNC3=O | 0.125 | 7.6 | 60 |
| COc1ccc2sc3c(c2c1)NCCNC3=O | 0.13 | 4.5 | 35 |
| COc1ccc2sc3c(c2c1)[S+]([O-])CCNC3=O (centres undefined) | 2.55 | 25.8 | 10 |
| COc1ccc2sc3c(c2c1)NC[C@H](CC(C)C)NC3=O | 0.02 | 2 | 100 |
| C=CCN1CCNC(=O)c2sc3ccc(OC)cc3c21 | 0.001 | 1.75 | 1750 |
| COc1ccc2sc3c(c2c1)N(Cc1ccccc1)CCNC3=O | 0.005 | 8 | 1600 |
| COc1ccc2sc3c(c2c1)NC[C@@H](C(C)C)NC3=O | 0.09 | 3.3 | 37 |
| COc1ccc2sc3c(c2c1)OCCNC3=O | 0.21 | 13.1 | 60 |
| COc1ccc2sc3c(c2c1)N(Cc1ccccc1Cl)CCNC3=O | 0.008 | 12 | 1500 |
| COc1ccc2sc3c(c2c1)N(Cc1ccc(Cl)cc1)CCNC3=O | 0.04 | 12 | 300 |

More lines, in order of falling EC50 (Human alphaherpesvirus 1), values ahead:

| EC50 (Human alphaherpesvirus 1) [µM] | SMILES | CC50 [1] [µM] | selectivity ratio [2] |
| --- | --- | --- | --- |
| 0.44 | COc1ccc2sc3c(c2c1)N(C)CCNC3=O | 12.5 | 28 |
| 0.39 | COc1ccc2sc3c(c2c1)NC[C@@H](CC(C)C)NC3=O | 7 | 18 |
| 0.28 | COc1ccc2sc3c(c2c1)NC[C@H](Cc1ccccc1)NC3=O | 1.9 | 7 |
| 0.13 | COc1ccc2sc3c(c2c1)N[C@H](C)CNC3=O | 7 | 54 |
| 0.03 | COc1cccc(CN2C[C@@H](C)NC(=O)c3sc4ccc(OC)cc4c32)c1 | 3.4 | 170 |
| 0.03 | COc1ccc2sc3c(c2c1)N(Cc1ccc(C)cc1)CCNC3=O | 11 | 360 |
| 0.02 | COc1ccc2sc3c(c2c1)NC[C@@H](C)NC3=O | 1 | 50 |
| 0.01 | COc1ccc2sc3c(c2c1)N[C@@H](Cc1ccccc1)CNC3=O | 1.1 | 110 |
| 0.005 | COc1ccc2sc3c(c2c1)N(Cc1cccc(C)c1)CCNC3=O | 12 | 2400 |
| 0.0004 | COc1cccc(CN2CCNC(=O)c3sc4ccc(OC)cc4c32)c1 | 10 | 25000 |
